How the values were obtained:
[1] = tested on: Human umbilical vein endothelial cells (HUVEC); assay: SA β-galactosidase staining of HUVEC grown on glycated collagen (premature senescence); type: cell-based; settings: for reversal of premature senescence in HUVECs on GC (SA β-galactosidase staining, FIG. 1): HUVECs on GC 3 days, then compound every 12 hours until staining on day 5, GC dilutions 1:3, 1:6, 1:10 in native collagen; for development of premature senescence (SA β-galactosidase staining) in HUVECs grown on GC: ebselen 1 μmol/L, NOHA 0.1 mmol/L, MnTBAP 2.5 μmol/L, applied day 1, 2 hours after plating, added daily, studied day 3
Description: Detection of SA-β-galactosidase was carried out utilizing the histochemical staining method of Dimitri et al, Proc. Natl. Acad. Sci. USA 92, 9363-9367 as modified by Van der Loo, B., et al, Exp. Cell Res. 241, 309-315 (1998). SA β-galactosidase is a known senescence marker. […] This phenomenon occurred in 12 week and 21 week-old diabetic rats, but was undetectable in age-matched Zucker lean rats (0/24 branches examined).
Human umbilical vein endothelial cells (HUVEC) after four passages were plated on glycated collagen with or without the addition of 0.1 mM ebselen. Application was made on day 1, 2 hours after plating. The extent of SA β-galactosidase staining was evaluated on days 3 and 5 of culture on a glycated or native collagen matrix. In addition, to study the reversibility process, HUVEC were plated on glycated collagen for three days (time sufficient to induce premature senescence), and ebselen was added every 12 hours, starting on day 3, and the cells were examined on day 5.
These concentrations of compounds were chosen based on preliminary experiments testing effects of a range of concentrations for each compound and selecting the lowest one which was efficient but non-cytotoxic. Ebselen, NOHA, and MnTBAP were each applied on day 1, 2 hours after HUVEC plating, added daily, and cells were studied on day 3. HUVECs grown on both glycated and native matrix were examined for the extent of SA β-galactosidase staining. […] In addition, to test for reversibility of senescence by ebselen, NOHA, or MnTBAP, HUVECs were plated on GC for 3 days (time sufficient to induce premature senescence) and thereafter ebselen (ebs), NOHA, or MnTBAP were added every 12 hours, until SA β-galactosidase staining on day 5. […] Dashed lines show the data obtained in HUVECs cultured on native collagen (NC).

[2] = tested on: endothelial cells from saphenous vein; assay: Artificial heart valve seeded with endothelial cells cultured with ebselen, implanted in patient (Example V); type: in vivo, human; settings: cells cultured with 10-100 μg/ml at 35° C. for 2-3 weeks; versus patients not receiving ebselen
Description: A person with a defective heart valve is being prepared for a surgical replacement of the valve with a prosthetic device. A saphenous vein is obtained to harvest endothelial cells for expansion and seeding onto the surface of a artificial valve. Endothelial cells are isolated from the graft and cultured in a medium containing ebselen or ebselen-class compound at a concentration of 10-100 μg/ml at 35° C. for 2-3 weeks and cells are seeded onto the valve in the continuous presence of the same concentration of ebselen or ebselen-class compound. Thus prepared, the artificial valve is implanted.

[3] = tested on: endothelial cells from saphenous vein; assay: Artificial vascular graft seeded with endothelial cells cultured with ebselen, implanted in patient (Example VI); type: in vivo, human; settings: cells cultured with 10-100 μg/ml at 35° C. for 2-3 weeks; versus patients not receiving ebselen
Description: A person with peripheral vascular disease is undergoing an elective femoral-to-popliteal bypass surgery utilizing an artificial vascular graft. A saphenous vein is obtained to harvest endothelial cells for expansion and seed onto the surface of a graft. Endothelial cells are isolated from the graft and cultured in a medium containing ebselen or ebselen-class compound at a concentration of 10-100 μg/ml at 35° C. for 2-3 weeks, and cells are seeded onto the graft in the continuous presence of the same concentration of ebselen or ebselen-class compound. Thus prepared, the vascular graft is implanted.

Alzheimer's disease = assay: Patient with Alzheimer's disease treated with ebselen or ebselen-class compounds (Example III); type: in vivo, human; settings: 1-20 mg/kg thrice/day alone or with antioxidant agents and vitamins; two years later
Description: A person with no known medical conditions has been experiencing a sustained loss of short-term memory for the past three years. Their CBC, electrolytes and other plasma metabolites are within normal range. There is no vitamin deficiency, no abnormalities in liver function tests, and no previous history of cerebro-vascular accidents. […] Based on these findings the patient is diagnosed with Alzheimer's disease. Therapy with ebselen or other ebselen-class compounds is initiated at doses of 1-20 mg/kg thrice/day alone or in combination with antioxidant agents and vitamins (e.g., ascorbate, alpha-tocopherol, vitamin B6, vitamin B12, folate (folic acid), carotenoids, coenzyme Q10, phytoestrogens (including isoflavonoids), butylated hydroxytoluene (BHT), butylated hydroxyanisole (BHA) and n-3 polyunsaturated fatty acids (PUFA)).

end stage renal disease = assay: Patient with end stage renal disease on chronic hemodialysis treated with ebselen (Example I); type: in vivo, human; settings: ebselen 1-20 mg/kg thrice/day, 6 months later
Excerpt: (In some cases, renal biopsy will be performed, which will directly disclose the deposition of AGE in the renal parenchyma and increased proportion of SA-beta-galactosidase-stained endothelial cells). […] In addition, the patient has their arteriovenous fistula revised 3 times due to clotting and stenosis. The patient is also complaining of a non-healing foot ulcer and intermittent claudication, both signs of peripheral vascular disease. […] Similar results are obtained in similar patients who are administered other ebselen-class compounds.

diabetes mellitus = assay: Patient with poorly controlled diabetes mellitus treated with ebselen (Example II); type: in vivo, human; settings: ebselen 1-20 mg/kg thrice/day, 6 months later
Description: A patient with type I (alternatively, a patient with type 2) diabetes mellitus, past medical history of myocardial infarction, peripheral vascular disease, hypertension, proteinuria and non-healing foot ulcer, is receiving insulin, but experiences poor therapeutic response. Patient's fasting blood glucose level is 200 mg/dl. Additional laboratory findings include elevated Hgb Alc level (8.5%) as well as one of the following signs of AGE accumulation: elevated level of pentosidine (2.3 pmol/mg) or elevated level of Amadori serum albumin (41 U/ml). (In some cases, renal biopsy will be performed, which will directly disclose the deposition of AGE in the renal parenchyma and increased proportion of SA-beta-galactosidase-stained endothelial cells). […] Similar results are obtained in similar patients who are administered other ebselen-class compounds.

SMILES: O=C(O)c1ccc(/C2=C3\C=CC(=N3)/C(c3ccc(C(=O)O)cc3)=c3/cc/c4[n]3[Mn]([Cl])[n]3c2ccc3/C(c2ccc(C(=O)O)cc2)=C2/C=CC(=N2)\C=4c2ccc(C(=O)O)cc2)cc1 [MnTBAP, [5,10,15,20-tetrakis(4-carboxyphenyl)-porphyrinato]manganese (III) chloride]
- reversal of premature senescence in HUVECs on GC (SA β-galactosidase staining, FIG. 1) [1]: able to reverse premature senescence at all dilutions of GC
- development of premature senescence (SA β-galactosidase staining) in HUVECs grown on GC [1]: completely abolished the development of premature senescence

SMILES: N=C(N)NCCC[C@H](N)C(=O)O [L-arginine]
- reversal of premature senescence in HUVECs on GC (SA β-galactosidase staining, FIG. 1) [1]: reversed senescence at low but not high concentrations of GC

SMILES: O=c1c2ccccc2[se]n1-c1ccccc1 [ebselen, 2-phenyl-1,2-benzisoselenazol-3(2H)-one]
- thrombotic and atheroembolic complications after artificial valve implantation [2]: less thrombotic and atheroembolic complications
- development of premature senescence (SA β-galactosidase staining) in HUVEC grown on glycated collagen ([1]; 0.1 mM ebselen applied day 1, 2 hours after plating, evaluated on days 3 and 5): completely abolished the development of premature senescence
- reversal of premature senescence in HUVEC on glycated collagen ([1]; HUVEC on glycated collagen 3 days, ebselen added every 12 hours from day 3, examined day 5): able to reverse premature senescence at all dilutions of glycated collagen
- reversal of premature senescence in HUVECs on GC (SA β-galactosidase staining, FIG. 1) [1]: able to reverse premature senescence at all dilutions of GC
- development of premature senescence (SA β-galactosidase staining) in HUVECs grown on GC [1]: completely abolished the development of premature senescence
- thrombotic and atheroembolic complications after vascular graft implantation [3]: less thrombotic and atheroembolic complications
- symptoms related to the memory loss (Alzheimer's disease): no deterioration and a partial improvement of symptoms related to the memory loss
- clinical outcome (end stage renal disease): significant subjective improvement of coronary symptoms, renal disease, healing of foot ulcer, normalization of blood pressure
- pentosidine after treatment (end stage renal disease): 1.7 pmol/mg
- Amodori serum albumin after treatment (end stage renal disease; before 40 U/ml): 30 U/ml
- clinical outcome (diabetes mellitus): significant subjective improvement of coronary symptoms
- pentosidine after treatment (diabetes mellitus; before 2.3 pmol/mg): ≤ 1.7 pmol/mg
- Amadori serum albumin after treatment (diabetes mellitus; before 41 U/ml): ≤ 30 U/ml

SMILES: N=C(NO)NCCC[C@H](N)C(=O)O [NOHA, N^ω-hydroxyl-L-arginine]
- reversal of premature senescence in HUVECs on GC (SA β-galactosidase staining, FIG. 1) [1]: able to reverse premature senescence at all dilutions of GC
- development of premature senescence (SA β-galactosidase staining) in HUVECs grown on GC [1]: completely abolished the development of premature senescence
